Assay: molar heat capacity at constant volume; xn = mol fraction of the nth substance listed
Settings: Fluid (supercritical or subcritical phases), isochoric heat capacity, x1 = 0.2607

N [ammonia] + O
Settings | molar heat capacity at constant volume [J/K/mol]
602.99 K, Mass density=227.54 kg/m3 | 102.11
602.99 K, Mass density=230.31 kg/m3 | 103.53
602.99 K, Mass density=311.19 kg/m3 | 92.66
602.99 K, Mass density=342.18 kg/m3 | 84.9
603.01 K, Mass density=218.92 kg/m3 | 92.95
603.08 K, Mass density=205.58 kg/m3 | 71.27
603.08 K, Mass density=214.83 kg/m3 | 91.92
603.08 K, Mass density=218.92 kg/m3 | 93.46
603.08 K, Mass density=224.53 kg/m3 | 102.11
603.08 K, Mass density=227.54 kg/m3 | 94.83
603.08 K, Mass density=230.31 kg/m3 | 97.85
603.08 K, Mass density=311.19 kg/m3 | 88.26
603.1 K, Mass density=214.83 kg/m3 | 85.33
603.16 K, Mass density=205.58 kg/m3 | 70.95
603.16 K, Mass density=227.54 kg/m3 | 89.2
603.16 K, Mass density=230.31 kg/m3 | 92.7
603.16 K, Mass density=311.19 kg/m3 | 87
603.17 K, Mass density=224.53 kg/m3 | 98.9
603.17 K, Mass density=243.98 kg/m3 | 88.9
603.17 K, Mass density=260.02 kg/m3 | 88.9
603.25 K, Mass density=205.58 kg/m3 | 73.52
603.25 K, Mass density=224.53 kg/m3 | 95.33
603.25 K, Mass density=227.54 kg/m3 | 90.78
603.25 K, Mass density=311.19 kg/m3 | 89.86
603.26 K, Mass density=230.31 kg/m3 | 91.49
603.26 K, Mass density=243.98 kg/m3 | 86.61
603.26 K, Mass density=260.02 kg/m3 | 86.61
603.33 K, Mass density=224.53 kg/m3 | 94.9
603.34 K, Mass density=205.58 kg/m3 | 69.68
603.34 K, Mass density=243.98 kg/m3 | 87.69
603.34 K, Mass density=260.02 kg/m3 | 87.69
603.42 K, Mass density=205.58 kg/m3 | 67.87
603.42 K, Mass density=224.53 kg/m3 | 95.2
603.42 K, Mass density=311.19 kg/m3 | 88.62
603.43 K, Mass density=243.98 kg/m3 | 88.17
603.43 K, Mass density=260.02 kg/m3 | 88.17
603.51 K, Mass density=205.58 kg/m3 | 72.19
603.51 K, Mass density=243.98 kg/m3 | 85.63
603.51 K, Mass density=260.02 kg/m3 | 85.63
603.58 K, Mass density=243.98 kg/m3 | 83.27
603.58 K, Mass density=260.02 kg/m3 | 83.27
603.59 K, Mass density=205.58 kg/m3 | 69.01
603.59 K, Mass density=227.54 kg/m3 | 89.22
603.6 K, Mass density=214.83 kg/m3 | 85.67
603.67 K, Mass density=230.31 kg/m3 | 84.99
603.68 K, Mass density=214.83 kg/m3 | 84.57
603.68 K, Mass density=227.54 kg/m3 | 87.34
603.69 K, Mass density=243.98 kg/m3 | 85.13
603.69 K, Mass density=260.02 kg/m3 | 85.13
603.76 K, Mass density=227.54 kg/m3 | 89.27
603.77 K, Mass density=214.83 kg/m3 | 81.81
603.77 K, Mass density=218.92 kg/m3 | 89.86
603.78 K, Mass density=243.98 kg/m3 | 82.7
603.78 K, Mass density=260.02 kg/m3 | 82.7
603.85 K, Mass density=224.53 kg/m3 | 94
603.85 K, Mass density=227.54 kg/m3 | 85.53
603.86 K, Mass density=218.92 kg/m3 | 86.91
603.86 K, Mass density=260.02 kg/m3 | 83.32
603.92 K, Mass density=214.83 kg/m3 | 84.57
603.93 K, Mass density=227.54 kg/m3 | 84.41
603.94 K, Mass density=224.53 kg/m3 | 94.9
603.94 K, Mass density=230.31 kg/m3 | 86.75
604.02 K, Mass density=224.53 kg/m3 | 91.83
604.02 K, Mass density=227.54 kg/m3 | 87.55
604.04 K, Mass density=214.83 kg/m3 | 80.85
604.09 K, Mass density=214.83 kg/m3 | 82.56
604.11 K, Mass density=224.53 kg/m3 | 94.23
604.11 K, Mass density=227.54 kg/m3 | 83.91
604.12 K, Mass density=230.31 kg/m3 | 81.87
604.19 K, Mass density=224.53 kg/m3 | 93.25
604.19 K, Mass density=227.54 kg/m3 | 84.67
604.2 K, Mass density=214.83 kg/m3 | 82.1
604.28 K, Mass density=214.83 kg/m3 | 79.51
604.28 K, Mass density=224.53 kg/m3 | 89.96
604.28 K, Mass density=227.54 kg/m3 | 86.4
604.31 K, Mass density=230.31 kg/m3 | 80.09
604.36 K, Mass density=224.53 kg/m3 | 91.15
604.43 K, Mass density=230.31 kg/m3 | 85.06
604.45 K, Mass density=224.53 kg/m3 | 90.84
604.52 K, Mass density=230.31 kg/m3 | 82.6
605.13 K, Mass density=329 kg/m3 | 85.88
605.22 K, Mass density=329 kg/m3 | 88.22

Reference: the NIST ThermoML archive (doi:10.1007/s10765-009-0602-6)
